Data on two molecules can be found in patent US8293258B2, “Pesticide treatments made from hop extracts” (John I. Hass, Inc., priority 2000, dated 2012).

The test system of series [1] is Erysiphe (=Uncinula) necator. Briefly: Grapevine powdery mildew control test (experimental vineyard). It is filed as in vivo. The note with it: standard control fungicide, concentration not given; percent of grape clusters that showed disease. How it is done: The grapevine powdery mildew organism is the fungus Erysiphe (=Uncinula) necator and the host plant is wine grape plant Vitis vinifera. Tests were conducted in an experimental vineyard near Pasco, Wash. Treatments were applied using an airblast sprayer at a volume of 100 gallons per acre. Disease inoculum was natural and had been the heaviest it has been in at least seven years. Plot size was five grape plants. Treatments were replicated four times and evaluations were made on September 4th. […] Percent severity is the portion of each grape cluster that was covered with symptoms.

In series [2] the test system is predator mites Galendromus occidentalis and Neoseiulus fallacis. The note with it: in vivo.
Text: Final concentrations of each component of the tank mix are: one-half percent liquid soap, one percent crop oil and one percent beta acids.
This mixture was applied to hop plants using a Windmill 400 gallon airblast sprayer. The mixture was applied to a one-acre test plot at the rate of 20 gallons per acre and to another one-acre plot at the rate of 100 gallons per acre. A total of five applications were made during the growing season. The first was made June 9th and the final on August 1st. Counts of live spider mites were made periodically during the season to monitor the effect of the product on the number of live mites. Simultaneously, the beneficial predator mites Galendromus occidentalis and Neoseiulus fallacis were counted to determine the effect of the product on these predator mites since these predator mites are useful in helping to reduce the numbers of twospotted spider mites.

Turning to `OC(c1ccc(Cl)cc1)(c1cncnc1)c1ccccc1Cl` (stereo not drawn) [Standard Control, Fenarimol], the “Percent Incidence” value in series [1] was 71%.
For Beta Acids, in series [2], the predator numbers result is listed as “quite high” and the “predator numbers, highest reached” value was not above 12 per leaf.
